Measured values from PMC5147771, “High-Resolution Genetics Identifies the Lipid Transfer Protein Sec14p as Target for Antifungal Ergolines” (PLoS Genetics, 2016).
Converted amounts (≈) assume the structure as drawn. Read-outs that look alike come from different tables or passages of the source.

What was measured:
[1] = test system: FLU-sensitive (DSY4982) and FLU-resistant (BPY22 and BPY17) C. neoformans isolates; type: cell-based
[2] = test system: FLU-resistant C. neoformans strain BPY22; assay: microbe, parasite or virus in culture; type: cell-based; conditions: for MIC: Cryptococcus neoformans, 48 h

SMILES | mechanism of inhibition (fungicidal vs fungistatic) [1] | MIC ([2]; read-out: MIC-0) [µg/mL] | MIC ([2]; read-out: MIC-2) [µg/mL] | activity against FLU-resistant strain (in words) [2]
CN1C[C@H](C(=O)Nc2cccc(C(F)(F)F)c2)C[C@@H]2c3cccc4c3[C@H](C[C@H]21)CN4C(=O)OC(C)(C)C [NGx03] | fungicidal effect | 32 (≈ 62.1 µM) | 16 (≈ 31 µM) | 
COC(=O)[C@@H]1C[C@@H]2c3cccc4c3[C@H](C[C@H]2N(C)C1)CN4C(=O)OCC(Cl)(Cl)Cl [NGx16] | fungicidal effect |  |  | weaker activity
COC(=O)[C@@H]1C[C@@H]2c3c([N+](=O)[O-])ccc4c3[C@H](C[C@H]2N(C)C1)CN4C(=O)OCC(Cl)(Cl)Cl [NGx19] |  |  |  | weaker activity
